Structures can show the parent of a compound that is named as a salt.
System: glucose 6-phosphate dehydrogenase
Test: Stabilization of glucose 6-phosphate dehydrogenase in a reagent for measuring the activity of creatine kinase (residual activity after storage)
Format: biochemical
Conditions: 10 mM additive in reagent solution 1 (pH 6.6), activity immediately after preparation = 100%; for Residual activity after 3 months (%): stored at 10° C. for 3 months; for Residual Activity after 12 months (%): stored at 10° C. for 12 months

SMILES	Residual activity after 3 months (%)	Residual Activity after 12 months (%)
Cl.NO [Compound I-1, hydroxylamine hydrochloride]	100.2%	85.9%
NO.NO.O=S(=O)(O)O [Compound I-2, hydroxylamine sulfate]	99.8%	88.7%
NO.O=C(O)C(=O)O [Compound I-3, hydroxylamine oxalate]	98.2%	89.2%
Cl.NOCC(=O)O [Compound I-4, carboxymethoxylamine hydrochloride]	99.9%	88.9%
Cl.NOCc1ccccc1 [Compound I-5, O-benzylhydroxylamine hydrochloride]	96.8%	78.9%
O=C(c1ccccc1)N(O)c1ccccc1 [Compound I-6, N-benzoyl-N-phenylhydroxylamine]	80.5%	30.3%
Cc1ccccc1N(O)C(=O)c1ccccc1 [Compound I-7, N-benzoyl-N-(2-methylphenyl)hydroxylamine]	81.5%	25.6%
O=C(C=Cc1ccccc1)N(O)c1ccccc1 [Compound I-8, N-cinnamoyl-N-phenylhydroxylamine]	90.4%	44.5%
CNO [Compound I-9, N-methylhydroxylamine]	100.1%	80.3%
CON [Compound I-10, O-methylhydroxylamine]	99.7%	82.3%
Cc1cccc(N(O)C(=O)C=Cc2ccccc2)c1C [Compound I-11, N-cinnamoyl-N-2,3-xylylhydroxylamine]	79.6%	23.6%
CC(C)(C)NO [Compound I-12, N-(tert-butyl)hydroxylamine]	75.5%	22.2%
Cl.ONC1CCCCC1 [Compound I-13, N-cyclohexylhydroxylamine hydrochloride]	92.1%	80.2%
NNC(=O)c1ccccc1 [II-1, benzoylhydrazine]	100.1%	87.6%
NNC(=O)C(=O)NN [II-3, oxalyldihydrazide]	88.5%	65.2%
NNC(=O)c1cccnc1 [II-4, nicotinic acid hydrazide]	70.3%	38.5%
CCOC(=O)CNN [II-5, ethylhydrazinoaceate hydrochloride]	75.4%	28.3%
Br.NNC1=NCCN1 [II-6, 2-hydrazino-2-imidazoline hydrobromide]	89.2%	58.5%
NNC(=O)c1cc2ccccc2cc1O [II-7, 3-hydroxy-2-naphthoenic acid hydrazide]	89.7%	60.3%
COC(=O)NN [II-8, methyl carbazate]	99.8%	86.5%
CC(=O)NNC(N)=S [II-9, 1-acetylthiosemicarbazide]	82.3%	45.6%
CCOC(=O)NN [II-12, ethyl carbazate]	102.2%	88.3%
CCNC(=S)NN [II-13, 4-ethyl-3-thiosemicarbazide]	90.2%	62.1%
NNC(=O)Nc1ccccc1 [II-14, 4-phenylsemicarbazide]	99.9%	86.5%
CC(C)NNC(=O)c1ccncc1 [II-15, iproniazide]	65.8%	20.1%
CC(C)=NNC(N)=S [II-16, acetone thiosemicarbazone]	79.8%	41.5%
NC(=S)C(N)=S [II-17, dithiooxyamide]	75.2%	32.3%
CN(C)C(=S)Cl [III, dimethylthiocarbamoyl chloride]	80.3%	43.2%
NCCNCCO [IV, 2-(2-aminoethylamino) ethanol]	98.7%	81.1%

Reference: patent US5424204A, “Method for stabilizing glucose 6-phosphate dehydrogenase with hydroxylamines, aldehyde scavengers, dimethylthiocarbamoyl chloride or 2-(2-aminoethylamino) ethanol” (Kyowa Medex Co., Ltd., priority 1993, dated 1995)
